Experimental data published in patent US20230321196A1 (priority 2020, published 2023).
Like-named read-outs stand apart in the source and are kept apart here. Bridges are numbered along the chain shown (N, C = ends). Where no end group is shown, it is not given here.

Legend:
[1] = tested on: influenzavirus-infected mice; type: in vivo
[2] = tested on: influenzavirus PR8(A/PR/8/34 (H1N1)); experiment: Test III: virus concentration in lung; type: in vivo, mice; conditions: administered groups vs control group
[3] = tested on: influenzavirus-infected mice; type: in vivo; conditions: for Score of gross lesion examination of lung: day 5 after inoculation
[4] = tested on: influenzavirus-infected mice; type: in vivo; remark: listed apart in the source
[5] = tested on: influenzavirus-infected mice; type: in vivo; conditions: mean ± SE
COVID-19 patients = conditions: 15 ng/kg body weight/min i.v. continuous 72 hours, then 8 hours per day up to day 10; trial still blinded
[6] = tested on: influenzavirus PR8(A/PR/8/34 (H1N1)); experiment: Test II: virus concentration in lung; type: in vivo, mice; conditions: for Virus concentration in lung: right lung, day 5 after inoculation, mean ± SE
[7] = tested on: influenzavirus-infected mice; type: in vivo; conditions: for Score of gross lesion examination of lung: day 5 after inoculation; remark: listed apart in the source
[8] = tested on: influenzavirus-infected mice; type: in vivo; remark: listed apart in the source
[9] = tested on: influenzavirus-infected mice; type: in vivo; remark: listed apart in the source
[10] = tested on: influenzavirus-infected mice; type: in vivo; conditions: left lung, mean ± SE
[11] = 25 nmol/kg i.v., day 1 after inoculation
[12] = 25 nmol/kg i.v., day 2 after inoculation
[13] = 25 nmol/kg i.v., day 3 after inoculation
[14] = 25 nmol/kg i.v., day 4 after inoculation
[15] = 25 nmol/kg i.v., day 5 after inoculation
[16] = 25 nmol/kg tail vein once per day, day 0 after inoculation, mean ± SE
[17] = 250 nmol/kg i.v., day 1 after inoculation
[18] = 250 nmol/kg i.v., day 2 after inoculation
[19] = 250 nmol/kg i.v., day 3 after inoculation
[20] = 250 nmol/kg i.v., day 4 after inoculation
[21] = 250 nmol/kg i.v., day 5 after inoculation
[22] = 250 nmol/kg tail vein once per day, day 0 after inoculation, mean ± SE
[23] = Test II, administered groups vs control group
[24] = 10 nmol/kg i.v., day 0 after inoculation
[25] = 10 nmol/kg i.v., day 1 after inoculation
[26] = 10 nmol/kg i.v., day 2 after inoculation
[27] = 10 nmol/kg i.v., day 3 after inoculation
[28] = 10 nmol/kg i.v., day 4 after inoculation
[29] = 10 nmol/kg i.v., day 5 after inoculation
[30] = 10 nmol/kg tail vein once per day, 1 day before inoculation, mean ± SE
[31] = 100 nmol/kg i.v., day 0 after inoculation
[32] = 100 nmol/kg i.v., day 1 after inoculation
[33] = 100 nmol/kg i.v., day 2 after inoculation
[34] = 100 nmol/kg i.v., day 3 after inoculation
[35] = 100 nmol/kg i.v., day 4 after inoculation
[36] = 100 nmol/kg i.v., day 5 after inoculation
[37] = 100 nmol/kg tail vein once per day, 1 day before inoculation, mean ± SE

Molecule: 60K PEG-AM: adrenomedullin derivative having a PEG group with a weight-average molecular weight of 60 kDa, prepared according to WO 2017/047788
- Body weight [1, 11]: 16.4 ± 0.4
- Body weight [1, 12]: 16.3 ± 0.4
- Body weight [1, 13]: 14.5 ± 0.4
- Body weight [1, 14]: 13.9 ± 0.5
- Body weight [1, 15]: 13.9 ± 0.5
- Body weight [1, 16]: 16.4 ± 0.4
- Body weight [1, 17]: 16.1 ± 0.4
- Body weight [1, 18]: 15.8 ± 0.5
- Body weight [1, 19]: 14.3 ± 0.4
- Body weight [1, 20]: 13.7 ± 0.3
- Body weight [1, 21]: 13.3 ± 0.3
- Body weight [1, 22]: 16.4 ± 0.3
- virus concentration in the lung [2]: significantly decreased
- Score of gross lesion examination of lung ([3]; Left lung, 25 nmol/kg i.v. once per day, mean ± SE): 2.0 ± 0.5
- Score of gross lesion examination of lung ([3]; Left lung, 250 nmol/kg i.v. once per day): 2.4 ± 0.2
- Score of gross lesion examination of lung ([3]; Right lung, 25 nmol/kg i.v. once per day): 2.0 ± 0.5
- Score of gross lesion examination of lung ([3]; Right lung, 250 nmol/kg i.v. once per day): 1.9 ± 0.3
- gross lesion formation in the lung ([3]; Test III, administered groups vs control group): significantly suppressed
- General condition score [4, 11]: 0.0 ± 0.0
- General condition score [4, 12]: 0.1 ± 0.0
- General condition score [4, 13]: 0.5 ± 0.0
- General condition score [4, 14]: 0.7 ± 0.1
- General condition score [4, 15]: 0.9 ± 0.1
- General condition score [4, 16]: 0.0 ± 0.0
- General condition score [4, 17]: 0.0 ± 0.0
- General condition score [4, 18]: 0.1 ± 0.0
- General condition score [4, 19]: 0.5 ± 0.0
- General condition score [4, 20]: 0.8 ± 0.0
- General condition score [4, 21]: 1.0 ± 0.0
- General condition score [4, 22]: 0.0 ± 0.0
- Score of histopathological examination of lung: Pneumonia score ([5]; Table 14, 25 nmol/kg i.v. once per day): 8.3 ± 1.5
- Score of histopathological examination of lung: Pneumonia score ([5]; Table 14, 250 nmol/kg i.v. once per day): 9.4 ± 0.6
- Score of histopathological examination of lung: Pneumonia score ([5]; Table 15, 25 nmol/kg i.v. once per day): 8.3 ± 1.5
- Score of histopathological examination of lung: Pneumonia score ([5]; Table 15, 250 nmol/kg i.v. once per day): 9.4 ± 0.6

Molecule: CC[C@H](C)[C@H](NC(=O)[C@H](CCC(N)=O)NC(=O)[C@H](Cc1c[nH]cn1)NC(=O)[C@H](C)NC(=O)[C@H](CC(C)C)NC(=O)[C@H](CCCCN)NC(=O)[C@H](CCC(N)=O)NC(=O)[C@@H](NC(=O)[C@@H](NC(=O)[C@@H]1CSSC[C@H](NC(=O)CNC(=O)[C@H](Cc2ccccc2)NC(=O)[C@H](CO)NC(=O)[C@H](CCCNC(=N)N)NC(=O)[C@H](CC(C)C)NC(=O)CNC(=O)[C@H](CCC(N)=O)NC(=O)[C@H](Cc2ccccc2)NC(=O)[C@H](CC(N)=O)NC(=O)[C@H](CC(N)=O)NC(=O)[C@H](CCSC)NC(=O)[C@H](CO)NC(=O)[C@H](CCC(N)=O)NC(=O)[C@H](CCCNC(=N)N)NC(=O)[C@@H](N)Cc2ccc(O)cc2)C(=O)N[C@@H](CCCNC(=N)N)C(=O)N[C@@H](Cc2ccccc2)C(=O)NCC(=O)N[C@@H]([C@@H](C)O)C(=O)N1)[C@@H](C)O)C(C)C)C(=O)N[C@@H](Cc1ccc(O)cc1)C(=O)N[C@@H](CCC(N)=O)C(=O)N[C@@H](Cc1ccccc1)C(=O)N[C@H](C(=O)N[C@@H](CC(=O)O)C(=O)N[C@@H](CCCCN)C(=O)N[C@@H](CC(=O)O)C(=O)N[C@@H](CCCCN)C(=O)N[C@@H](CC(=O)O)C(=O)N[C@@H](CC(N)=O)C(=O)N[C@H](C(=O)N[C@@H](C)C(=O)N1CCC[C@H]1C(=O)N[C@@H](CCCNC(=N)N)C(=O)N[C@@H](CO)C(=O)N[C@@H](CCCCN)C(=O)N[C@H](C(=O)N[C@@H](CO)C(=O)N1CCC[C@H]1C(=O)N[C@@H](CCC(N)=O)C(=O)NCC(=O)N[C@@H](Cc1ccc(O)cc1)C(N)=O)[C@@H](C)CC)C(C)C)[C@@H](C)O [adrenomedullin]
- adverse events (COVID-19 patients): no adverse event directly caused by AM has been reported

Molecule: [Ala-44]hAM(13-52): adrenomedullin analog: peptide of SEQ ID NO: 17, amidated at the C-terminus, disulfide bond formed by two cysteine residues (SFGCRFGTCTVQKLAHQIYQFTDKDKDNVAPASKISPQGY-NH2; disulfide 4-9 (inferred))
- Virus concentration in lung ([6]; 10 nmol/kg i.v. once per day): 53.0 ± 3.0 ×10^4 PFU/right lung
- Virus concentration in lung ([6]; 100 nmol/kg i.v. once per day): 43.3 ± 4.6 ×10^4 PFU/right lung
- virus concentration in the lung [6, 23]: significantly decreased
- Score of gross lesion examination of lung ([7]; Left lung, 10 nmol/kg i.v. once per day, mean ± SE): 2.8 ± 0.2
- Score of gross lesion examination of lung ([7]; Left lung, 100 nmol/kg i.v. once per day): 2.6 ± 0.2
- Score of gross lesion examination of lung ([7]; Right lung, 10 nmol/kg i.v. once per day): 2.9 ± 0.1
- Score of gross lesion examination of lung ([7]; Right lung, 100 nmol/kg i.v. once per day): 2.5 ± 0.2
- gross lesion formation in the lung [7, 23]: significantly suppressed
- General condition score [8, 24]: 0.0 ± 0.0
- General condition score [8, 25]: 0.0 ± 0.0
- General condition score [8, 26]: 0.2 ± 0.0
- General condition score [8, 27]: 0.5 ± 0.0
- General condition score [8, 28]: 0.8 ± 0.0
- General condition score [8, 29]: 1.0 ± 0.0
- General condition score [8, 30]: 0.0 ± 0.0
- General condition score [8, 31]: 0.0 ± 0.0
- General condition score [8, 32]: 0.0 ± 0.0
- General condition score [8, 33]: 0.1 ± 0.0
- General condition score [8, 34]: 0.5 ± 0.0
- General condition score [8, 35]: 0.8 ± 0.0
- General condition score [8, 36]: 1.0 ± 0.0
- General condition score [8, 37]: 0.0 ± 0.0
- Body weight [9, 24]: 15.7 ± 0.3
- Body weight [9, 25]: 16.1 ± 0.3
- Body weight [9, 26]: 15.1 ± 0.3
- Body weight [9, 27]: 14.0 ± 0.3
- Body weight [9, 28]: 13.2 ± 0.2
- Body weight [9, 29]: 12.8 ± 0.2
- Body weight [9, 30]: 15.8 ± 0.2
- Body weight [9, 31]: 15.8 ± 0.2
- Body weight [9, 32]: 16.2 ± 0.3
- Body weight [9, 33]: 15.5 ± 0.2
- Body weight [9, 34]: 14.6 ± 0.3
- Body weight [9, 35]: 13.6 ± 0.2
- Body weight [9, 36]: 12.9 ± 0.1
- Body weight [9, 37]: 15.8 ± 0.2
- Score of histopathological examination of lung: Pneumonia score ([10]; 10 nmol/kg i.v. once per day): 8.9 ± 0.4
- Score of histopathological examination of lung: Pneumonia score ([10]; 100 nmol/kg i.v. once per day): 9.0 ± 0.5
